Earlier results in US20190388350A1, “FORMULATION” (priority 2018, published 2019).
Where a name gives a salt, the structure may show the parent alone.

CCN(C)C(=O)Oc1cccc([C@H](C)N(C)C)c1 [rivastigmine tartrate]
pKa: 8.9
